Tests used:
cowpea plants [1] = test: Recovery of virus particles from mouse tissues, infectivity to cowpea; set-up: species or system Vigna unguiculata
Experimental: Recovery of virus particles from mouse tissues. Four mice were orally inoculated with 150 μg/mouse of CPMV and 24 hours later, the mice were euthanized and the liver, spleen, and kidney tissues were extracted and pooled. Following homogenization of pooled tissue samples in PBS, the homogenates were centrifuged at 10,000 g for 10 minutes at 4° C., and the cleared tissue supernatants were removed to flat-bottom 50-ml centrifuge tubes, each containing a magnetic flea. Polyethylene glycol 8000 was added to each supernatant to a final concentration of 8% and the mixture was stirred for 30 minutes at 4° C. to precipitate any virus present. The resulting cloudy mixture was centrifuged at 6,000 rpm in a Sorvall RC5C centrifuge for 15 minutes and the pellet was resuspended in 50-500 μl of 0.1 M phosphate buffer (pH 7.0), depending on pellet size. For each tissue homogenate a 7-day-old cowpea plant was dusted with carborundum and the resuspended pellet from each tissue was rubbed onto a single primary leaf. Five to seven days later, the primary and secondary leaves were harvested and a circle of tissue weighing 70 mg was excised from each leaf. RNA was extracted using a Qiagen RNeasy Plant Mini Kit (Qiagen Research, Maryland, USA) and RT-PCR was conducted as described above. PCR products were electrophoresed on a 2% Seakem LE agarose gel. The PCR products were purified from the gel using a PCR purification kit (Qiagen) and sequenced (Retrogen) to confirm that they were CPMV specific. Southern hybridization of the products with a CPMV-specific probe was also performed using ^32P end-labeled oligonucleotides (Amersham Biosciences). PCR products were transfered to Hybond-N+ membrane (Amersham Biosciences) using standard techniques. Hybridization conditions were 3 hours at 55° C. and wash conditions were in 6×SSC/0.5% SDS and were performed twice for five minutes at room temperature and twice for 5 minutes at 50° C.

cowpea plants [2] = test: Infectivity of CPMV following incubation with blood plasma or serum; set-up: species or system Vigna unguiculata; conditions: day 7
Experimental: Infectivity of CPMV following incubation with blood. Whole blood samples were obtained from mice following cardiac puncture either with or without heparin. Samples were incubated at 4° C. overnight and then spun at 15,000 rpm for 10 minutes. Blood plasma or serum were recovered and incubated with CPMV (15 ug) in a one to one (v/v) ratio at 37° C. for 30 minutes while a control CPMV sample was incubated with PBS. Primary leaves from 7-day-old cowpea plants were then bruised with carborundum and inoculated with samples (at a concentration of 3 μg CPMV per leaf, or 300-fold more virus than is required to produce lesions) and observed daily for infection-induced mosaic symptoms.

LCMV = conditions: mouse, in vivo
Flt-1 receptor (VEGFR1) = Flt-1 receptor (VEGFR1) (Homo sapiens, UniProt P17948); test: Binding and competition assays using ELISA
[3] = RT-PCR detection of CPMV RNA in tissues of mice inoculated i.v.; conditions: for CPMV RNA detected in bone marrow, mice positive/examined / CPMV RNA detected in brain, mice positive/examined / CPMV RNA detected in duodenum, mice positive/examined / CPMV RNA detected in ileum, mice positive/examined / CPMV RNA detected in jejunum, mice positive/examined / CPMV RNA detected in kidney, mice positive/examined / CPMV RNA detected in liver, mice positive/examined / CPMV RNA detected in lung, mice positive/examined / CPMV RNA detected in spleen, mice positive/examined / CPMV RNA detected in stomach, mice positive/examined: i.v.
[4] = 1 g infected leaves, day 1 post ingestion

Chain of Flt-1 receptor (VEGFR1) (P17948 27-1338): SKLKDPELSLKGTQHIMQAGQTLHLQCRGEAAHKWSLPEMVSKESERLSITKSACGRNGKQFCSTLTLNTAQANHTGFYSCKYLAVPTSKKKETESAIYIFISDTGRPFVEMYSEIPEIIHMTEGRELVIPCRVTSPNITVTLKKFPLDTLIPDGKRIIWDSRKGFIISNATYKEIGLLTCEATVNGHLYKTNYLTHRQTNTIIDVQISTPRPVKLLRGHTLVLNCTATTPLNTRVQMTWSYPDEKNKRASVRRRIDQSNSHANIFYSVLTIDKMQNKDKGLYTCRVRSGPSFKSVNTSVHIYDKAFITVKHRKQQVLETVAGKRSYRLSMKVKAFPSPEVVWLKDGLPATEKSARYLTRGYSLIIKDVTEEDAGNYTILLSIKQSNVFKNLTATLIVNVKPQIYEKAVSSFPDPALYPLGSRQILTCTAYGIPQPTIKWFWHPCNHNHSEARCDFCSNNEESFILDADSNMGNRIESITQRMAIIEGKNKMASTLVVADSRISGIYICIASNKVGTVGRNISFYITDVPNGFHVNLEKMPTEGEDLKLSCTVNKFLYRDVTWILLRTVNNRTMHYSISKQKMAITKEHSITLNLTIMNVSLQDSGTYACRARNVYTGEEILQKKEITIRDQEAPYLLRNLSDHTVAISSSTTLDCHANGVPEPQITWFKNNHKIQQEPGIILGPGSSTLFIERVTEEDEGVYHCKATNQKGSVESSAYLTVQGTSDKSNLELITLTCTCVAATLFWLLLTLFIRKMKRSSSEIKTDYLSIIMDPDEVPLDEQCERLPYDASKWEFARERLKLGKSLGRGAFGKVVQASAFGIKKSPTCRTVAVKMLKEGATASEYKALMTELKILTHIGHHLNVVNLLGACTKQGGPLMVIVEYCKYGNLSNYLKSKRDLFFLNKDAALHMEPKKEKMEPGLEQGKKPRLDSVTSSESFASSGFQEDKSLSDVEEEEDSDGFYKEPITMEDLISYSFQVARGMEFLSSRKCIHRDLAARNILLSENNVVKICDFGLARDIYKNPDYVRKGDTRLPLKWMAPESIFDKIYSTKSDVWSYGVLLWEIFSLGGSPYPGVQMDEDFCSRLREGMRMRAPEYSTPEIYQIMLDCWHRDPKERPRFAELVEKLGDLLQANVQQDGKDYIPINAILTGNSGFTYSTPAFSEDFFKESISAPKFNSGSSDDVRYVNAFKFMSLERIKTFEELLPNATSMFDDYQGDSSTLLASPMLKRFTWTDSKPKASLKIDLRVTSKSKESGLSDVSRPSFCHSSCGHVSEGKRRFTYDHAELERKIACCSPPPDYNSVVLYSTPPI

Substance: cowpea mosaic virus [CPMV]
- symptoms on cowpea leaves from virus recovered from mouse liver and spleen (cowpea plants [1]; PEG-precipitated tissue homogenates): No symptoms were observed
- inoculated amount required for a PCR signal (cowpea plants [1]; control titration on cowpea): 1 ng
- inoculated amount required to observe symptoms (cowpea plants [1]; control titration on cowpea): 10 ng
- lesions on primary leaves, plasma-incubated virus (cowpea plants [2]; 30 minutes at 37° C.): 6 lesions per cm
- lesions on primary leaves, serum-incubated virus (cowpea plants [2]; 30 minutes at 37° C.): less than 1 lesion per cm^2
- lesions on primary leaves, control infection (PBS) (cowpea plants [2]): too many lesions to count
- survival of lethal i.c. LCMV challenge (LCMV): one of six
- mice positive for CPMV RNA in kidney, duodenum, jejunum and brain [4]: 1 out of 3
- mice positive for CPMV RNA in spleen, liver, lungs, stomach, ileum and bone marrow [4]: 2 out of 3
- persistence of CPMV RNA in tissues (ingestion of infected leaves): did not persist in tissues past the first day
- binding to Flt-1 receptor in ELISA (Flt-1 receptor (VEGFR1)): did not show any detectable binding
- CPMV RNA in any tissues examined ([3]; day 5 or day 7 post-inoculation): not detected
- CPMV RNA detected in bone marrow, mice positive/examined ([3]; D1, Non-perfused): 3/3
- CPMV RNA detected in brain, mice positive/examined ([3]; D1, Non-perfused): 3/3
- CPMV RNA detected in duodenum, mice positive/examined ([3]; D1, Non-perfused): 3/3
- CPMV RNA detected in ileum, mice positive/examined ([3]; D1, Non-perfused): 3/3
- CPMV RNA detected in jejunum, mice positive/examined ([3]; D1, Non-perfused): 3/3
- CPMV RNA detected in kidney, mice positive/examined ([3]; D1, Non-perfused): 3/3
- CPMV RNA detected in liver, mice positive/examined ([3]; D1, Non-perfused): 2/3
- CPMV RNA detected in lung, mice positive/examined ([3]; D1, Non-perfused): 3/3
- CPMV RNA detected in spleen, mice positive/examined ([3]; D1, Non-perfused): 3/3
- CPMV RNA detected in stomach, mice positive/examined ([3]; D1, Non-perfused): 3/3
- CPMV RNA detected in bone marrow, mice positive/examined ([3]; D1, Perfused): 3/3
- CPMV RNA detected in brain, mice positive/examined ([3]; D1, Perfused): 3/3
- CPMV RNA detected in duodenum, mice positive/examined ([3]; D1, Perfused): 2/3
- CPMV RNA detected in ileum, mice positive/examined ([3]; D1, Perfused): 3/3
- CPMV RNA detected in jejunum, mice positive/examined ([3]; D1, Perfused): 3/3
- CPMV RNA detected in kidney, mice positive/examined ([3]; D1, Perfused): 3/3
- CPMV RNA detected in liver, mice positive/examined ([3]; D1, Perfused): 3/3
- CPMV RNA detected in lung, mice positive/examined ([3]; D1, Perfused): 3/3
- CPMV RNA detected in spleen, mice positive/examined ([3]; D1, Perfused): 3/3
- CPMV RNA detected in stomach, mice positive/examined ([3]; D1, Perfused): 3/3
- CPMV RNA detected in bone marrow, mice positive/examined ([3]; D2, Non-perfused): 3/3
- CPMV RNA detected in brain, mice positive/examined ([3]; D2, Non-perfused): 3/3
- CPMV RNA detected in duodenum, mice positive/examined ([3]; D2, Non-perfused): 3/3
- CPMV RNA detected in ileum, mice positive/examined ([3]; D2, Non-perfused): 3/3
- CPMV RNA detected in jejunum, mice positive/examined ([3]; D2, Non-perfused): 3/3
- CPMV RNA detected in kidney, mice positive/examined ([3]; D2, Non-perfused): 3/3
- CPMV RNA detected in liver, mice positive/examined ([3]; D2, Non-perfused): 3/3
- CPMV RNA detected in lung, mice positive/examined ([3]; D2, Non-perfused): 3/3
- CPMV RNA detected in spleen, mice positive/examined ([3]; D2, Non-perfused): 3/3
- CPMV RNA detected in stomach, mice positive/examined ([3]; D2, Non-perfused): 3/3
- CPMV RNA detected in bone marrow, mice positive/examined ([3]; D2, Perfused): 3/3
- CPMV RNA detected in brain, mice positive/examined ([3]; D2, Perfused): 2/3
- CPMV RNA detected in duodenum, mice positive/examined ([3]; D2, Perfused): 3/3
- CPMV RNA detected in ileum, mice positive/examined ([3]; D2, Perfused): 3/3
- CPMV RNA detected in jejunum, mice positive/examined ([3]; D2, Perfused): 3/3
- CPMV RNA detected in kidney, mice positive/examined ([3]; D2, Perfused): 3/3
- CPMV RNA detected in liver, mice positive/examined ([3]; D2, Perfused): 3/3
- CPMV RNA detected in lung, mice positive/examined ([3]; D2, Perfused): 3/3
- CPMV RNA detected in spleen, mice positive/examined ([3]; D2, Perfused): 3/3
- CPMV RNA detected in stomach, mice positive/examined ([3]; D2, Perfused): 3/3
- CPMV RNA detected in bone marrow, mice positive/examined ([3]; D3, Non-perfused): 3/3
- CPMV RNA detected in brain, mice positive/examined ([3]; D3, Non-perfused): 3/3
- CPMV RNA detected in duodenum, mice positive/examined ([3]; D3, Non-perfused): 2/3
- CPMV RNA detected in ileum, mice positive/examined ([3]; D3, Non-perfused): 3/3
- CPMV RNA detected in jejunum, mice positive/examined ([3]; D3, Non-perfused): 3/3
- CPMV RNA detected in kidney, mice positive/examined ([3]; D3, Non-perfused): 3/3
- CPMV RNA detected in liver, mice positive/examined ([3]; D3, Non-perfused): 3/3
- CPMV RNA detected in lung, mice positive/examined ([3]; D3, Non-perfused): 3/3
- CPMV RNA detected in spleen, mice positive/examined ([3]; D3, Non-perfused): 3/3
- CPMV RNA detected in stomach, mice positive/examined ([3]; D3, Non-perfused): 1/3
- CPMV RNA detected in bone marrow, mice positive/examined ([3]; D3, Perfused): 3/3
- CPMV RNA detected in brain, mice positive/examined ([3]; D3, Perfused): 3/3
- CPMV RNA detected in duodenum, mice positive/examined ([3]; D3, Perfused): 3/3
- CPMV RNA detected in ileum, mice positive/examined ([3]; D3, Perfused): 3/3
- CPMV RNA detected in jejunum, mice positive/examined ([3]; D3, Perfused): 3/3
- CPMV RNA detected in kidney, mice positive/examined ([3]; D3, Perfused): 3/3
- CPMV RNA detected in liver, mice positive/examined ([3]; D3, Perfused): 3/3
- CPMV RNA detected in lung, mice positive/examined ([3]; D3, Perfused): 3/3
- CPMV RNA detected in spleen, mice positive/examined ([3]; D3, Perfused): 3/3
- CPMV RNA detected in stomach, mice positive/examined ([3]; D3, Perfused): 3/3
